Measurements taken from patent US7763669B2, “Low-viscosity, radiation-curable formulation for producing adaptive earpieces” (Dreve-Otoplastik GmbH, priority 2004, dated 2010).

Assays:
[1] = Windowpane method for critical energy Ec and laser penetration depth Dp; format: physicochemical; conditions: small quantities added to resin formulation; for Influence of inhibitor addition on penetration depth of the laser beam Dp: FIGS. 3 and 5; for Influence of inhibitor addition on critical energy Ec: FIGS. 4 and 6
Method: The influence of the concentration of phenothiazine (PTZ) and 2,2-diphenyl-1-picrylhydrazyl radical (DPPH) in the formulations of Examples 1 and 2 on the penetration depth of the laser beam and the critical energy is illustrated in FIGS. 3 through 6. The laser penetration depth and the critical energy were determined using the windowpane method described by P. F. Jacobs and D. T. Reid in Rapid Prototyping & Manufacturing, Society of Manufacturing Engineers, Dearborn, Mich., 1992, 1st Ed., pp. 263-280. […] This influence of the inhibitors phenothiazine (PTZ) and 2,2-diphenyl-1-picrylhydrazyl radical (DPPH) on the is relevant parameter Ec (critical energy, mJ·cm^−2) and Dp (laser penetration depth, mils) for the stereolithographic resin differs from the influence of the inhibitors, such as p-methoxyphenol, added to the stereolithographic resins corresponding to the prior art (L. E. Levy, J. Polym. Sci., Part A, Polym. Chem. 30 (1992), 569ff). For example, in comparison to p-methoxyphenol the parameters Ec and Dp may be linearly adjusted in a wider range by small concentrations of the inhibitors. This is of great advantage, particularly for the production of such resins and adjustment of the above-described parameters. From a technical production standpoint this may be used to adjust the laser penetration depth that has a direct influence on the accuracy of the production process. For example, performing curing over a value of laser penetration depth that exceeds the desired layer thickness for the process reduces the resolution of the process. High values of the laser penetration depth play an important role in particular for transparent stereolithographic resins that preferably are used for producing otoplastic parts. In the case of stereolithographic resins in the medical field, however, in particular stereolithographic resins for the production of the above-described adaptive earpieces, the accuracy of the production, and thus, the fit, of the molded body is of paramount importance.
(§1) Table 2 lists the parameters for the above-described resins that are relevant for the stereolithographic process. All viscosity measurements were performed at 23° C. using a CVO rheometer from Bohlin Instruments. The flexural strength, modulus of elasticity, and elongation were determined in accordance with EN ISO 178 (1996), using a Zwick 1 test unit from Zwick. For determining the Ec and Dp values using the above-described windowpane method, in each case the average values were determined for 10 windowpane test pieces. The test pieces were produced using a Viper si2 SLA system (3D Systems) equipped with a Nd:YVO4 solid-state laser. The green compacts were post-cured for 2×7 min, using the Fototec PCU stroboscope irradiation unit from Dreve.

[2] = Flexural strength, modulus of elasticity and elongation per EN ISO 178 (Zwick 1 test unit) on post-cured test pieces; format: physicochemical
Method: The flexural strength, modulus of elasticity, and elongation were determined in accordance with EN ISO 178 (1996), using a Zwick 1 test unit from Zwick. The test pieces were post-cured for 2×7 min, using the PCU stroboscope irradiation unit from Dreve.
as §1

[3] = resin formulation from Example 2, inhibitor concentration 0.01 % by wt.
[4] = resin formulation from Example 2, inhibitor concentration 0.025 % by wt.
[5] = resin formulation from Example 2, inhibitor concentration 0.05 % by wt.
[6] = resin formulation from Example 2, inhibitor concentration 0.10 % by wt.
[7] = resin formulation from Example 2, inhibitor concentration 0.15 % by wt.

Row | Elongation to break [2, 3] [%] | Flexural strength [2, 3] [N · mm^−2] | Modulus of elasticity [2, 3] [N · mm^−2] | Molecule | Influence of inhibitor addition on penetration depth of the laser beam Dp [1] | Influence of inhibitor addition on critical energy Ec [1] | Elongation to break [2, 4] [%] | Flexural strength [2, 4] [N · mm^−2] | Modulus of elasticity [2, 4] [N · mm^−2] | Elongation to break [2, 5] [%] | Flexural strength [2, 5] [N · mm^−2] | Modulus of elasticity [2, 5] [N · mm^−2] | Elongation to break [2, 6] [%] | Flexural strength [2, 6] [N · mm^−2] | Modulus of elasticity [2, 6] [N · mm^−2] | Elongation to break [2, 7] [%] | Flexural strength [2, 7] [N · mm^−2] | Modulus of elasticity [2, 7] [N · mm^−2]
1 | 13 | 61 | 1452 | 2,2-diphenyl-1-picrylhydrazyl radical [DPPH] | linear decrease | sharp, essentially linear increase | 11 | 69 | 1324 | 10 | 66 | 1277 |  |  |  |  |  | 
2 |  |  |  | c1ccc2c(c1)Nc1ccccc1S2 [Phenothiazine, phenothiazine] | linear decrease | sharp, essentially linear increase | 15 | 95 | 1867 | 13 | 95 | 1989 | 12 | 101 | 2007 | 10 | 89 | 1832
